This is an account of results in patent US20240368668A1, “SUBSTRATES AND BIOMARKERS OF ADAMTS7” (The Broad Institute, Inc., priority 2021, published 2024).

Square brackets hold non-standard residues; d marks the D form. Ends that are not written are not given here. Met(O) = CS(=O)CC[C@H](N)C(=O)O

In the experiment the test system is mouse ADAMTS7. The experiment in a line: TMT10 TAILS N-terminomics, HUVEC experiment (process replicates, trypsin/AspN digest). Particulars: HUVEC TAILS HC; log fold change of N-terminal peptide, Ad-mADAMTS7 WT over EQ. It is filed as cell-based, human. A digest of the protocol:
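Full-length mouse ADAMTS7 (WT or E373Q mutant, C-terminal 3xFLAG) or luciferase was transduced via adenovirus, 50 MOI, into HCA-SMC (SMC1, SMC2) or HUVEC. SMC1: pooled media, technical triplicates 400 ug; SMC2: process triplicates 300 ug; HUVEC: process triplicates 200 ug, bFGF2 10 ng/ml.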
Turning to “ASMT_321 (LSSAGFR; listed as Homo sapiens)”, the logFC.mWT.over.mEQ is given as 2.56.
With “BICD1_280 (NNDDKMNGHIHGPLVKLNGDYR; listed as Homo sapiens)” the figure was 1.31; with “CLU_267 (FQHPPTEFIR; listed as Homo sapiens)”, 1.64.
Turning to “CTGF_173 (TVVGPALAAYR; listed as Homo sapiens)”, the logFC.mWT.over.mEQ is on record as 3.39.
Under “CTGF_174 (VVGPALAAYR; listed as Homo sapiens)” stands 2.44.
With “FN1_1624 (LVQTAVTTIPAPT; listed as Homo sapiens)” the figure was 1.56; with “FN1_1743 (WESPQGQVSR; listed as Homo sapiens)”, 3.05.
Under “LTBP2_129 (QQQPAPR; listed as Homo sapiens)” stands 5.32; under “LTBP2_253 (GEGTLAR; listed as Homo sapiens)”, 2.99; under “LTBP3_164 (LSTGALPPLAPEG; listed as Homo sapiens)”, 2.21.
As to “LTBP3_205 (HAAFLVPLGPGQISA; listed as Homo sapiens)”, the logFC.mWT.over.mEQ stood at 2.54.
Under “LTBP3_221 (VQAPPPVVNVR; listed as Homo sapiens)” stands 3.11.
Under “MCFD2_55 (HLEGVINKPEA; listed as Homo sapiens)” stands 0.99; under “PSAP_301 (LVEPIKKH; listed as Homo sapiens)”, 2.44.
Under “PTBP1_376 (AAAAAGR; listed as Homo sapiens)” stands 1.06; under “PZP_578 (HAHLQVAAAPQSLCALR; listed as Homo sapiens)”, 2.45; under “THBS1_630 (FGQGVEHATANK; listed as Homo sapiens)”, 2.28.
Turning to “UQCRH_76 (HGSPNNSERAMRAVGE[Met(O)]CKGPGAAR; listed as Homo sapiens)”, the logFC.mWT.over.mEQ turned out to be 1.38.
Under “ZYX_244 (PVSLANTQPR; listed as Homo sapiens)” stands 1.02.
